Assay results from patent US5728686A, “Alkylxanthine phosphonates and alkylxanthine phosphine oxides and their use as pharmaceuticals” (Hoechst Aktiengesellschaft, priority 1996, dated 1998).
Converted amounts (≈) assume the structure as drawn.

Key:
soleus muscle = experiment: rat muscle function test: muscle weight (atrophy of immobilized extremity); assay type: in vivo, male Wistar rats; details: oral, 1x per day for 3 weeks, as a rule 25 mg/kg, difference ≤25% classified as an effect
From the text: (§1) 1. Activity in the rat muscle function test
(§2) Male Wistar rats (body weight about 300 g) were kept under standard conditions with feed and water ad libitum. The right rear extremity was immobilized by fitting a kind of "shoe" to the animals under short-term anaesthesia. Two ergonomically fitted halves of the "shoe" were cast from a liquid plastic material which is also used for the production of dental prostheses, these were put onto the animal under brief anaesthesia and joined with the aid of a wire. The material is light but hard, so that the animals cannot gnaw the material, and the "shoe" can be opened at any time to examine the condition of the immobilized extremity. The two halves were moreover padded out with chamois leather in order to avoid compressions and possible injuries due to rubbing. The system also has the advantage that the angle of immobilization is standardized in all animals; this would not be possible with a plaster cast. The chosen angle allows the animals to take up a normal sitting position despite the "shoe" and also to carry the body weight using this extremity. Only complete stretching or bending of the leg is impossible.
In spite of this, a significant decrease in the skeletal muscle mass (atrophy) of the immobilized extremity occurred, to be precise up to -35% in comparison with the contralateral nonimmobilized rear extremity. As the soleus muscle was the most severely affected, the changes in muscle weight after administration of preparation shown in Table 1 relate to this muscle. A difference of ≤25% between the right immobilized and left non-immobilized rear extremity was classified as an effect.
(§3) After 3 weeks' immobilization of the right rear extremity and simultaneous oral administration of test preparations (1× per day using a stomach tube; as a rule 25 mg/kg of body weight, in carboxymethylcellulose, the animals were weighed and anaesthetized with pentobarbital (35 mg/kg i.p.). Functional parameters were measured during direct electrical stimulation of a muscle group (gastrocnemius, plantaris and soleus). This muscle group, merely called "muscle" in the following, was exposed at the ankle tendon and tied to a force transducer via the tendon.

[1] = system: isolated guinea pig lung strips, leukotriene D4 (LTD4); experiment: antagonist of LTD4-induced contraction of isolated guinea pig lung strips; assay type: cell-based; details: Cavia porcellus, read-out: Anticontractile action (lung), LTD4: concentration range corresponding to the IC50 value
From the text: (§4) 4. Activity as an antagonist of the contraction of isolated guinea pig lung strips
(§5) The test carried out is based on the same principle as the test indicated in the pharmacological test 3; however, lung strips are used here.
(§6) Preparation of the organ sections and experimental procedure:
(§7) The guinea pig is sacrificed under laughing gas anaesthesia. The entire pulmonary tract is exposed starting from the trachea. The lobes of the lung are cut in a circular fashion such that 3 mm wide strips are formed. The strips of the upper lobes are divided in order to obtain a total of six approximately equal size strips. The strips are suspended in the organ baths under a preload of 4 g. The nutrient solutions used are modified Krebs Henseleit solutions. When using "Platelet activating factor" (PAF) as an […], the composition of this solution corresponds to that for the agonist SP in "Test 3"; for the agonist LTD4 a Krebs Henseleit solution as in the case of the agonist KCl (Test 3) is used. 95% by volume O2, 5% by volume CO2 is used for bubbling through the bath; the bath temperature is 37° C. The experimental procedure is carried out in a therapeutically cumulative methodology, using the dosage graduations 1, 3, 6 and 10 μg/ml.
(§8) The experimental animals, organ bath, vehicles and manner of administration correspond to that stated in pharmacological test 3.
(§9) All numerical values are indicated in the unit μg/ml and relate to the concentration range of tested compound of the formula I (see example numbers in Table 1) which is necessary in order to cause a contraction which corresponds to the IC50 value.

[2] = system: isolated guinea pig trachea, agonist substance P; experiment: antagonist of substance P-induced contraction of isolated guinea pig trachea; assay type: cell-based; details: Cavia porcellus, individual doses, 37° C., read-out: Anticontractile action (trachea), SP antagonism: concentration range for dilatation corresponding to ED50 range
From the text: 3. Activity as antagonist of the contraction of isolated guinea pig trachea
The compounds of the formula I are used as antagonists of the contraction of isolated guinea pig trachea. The agonists employed were PGF2α (Upjohn, Germany), calcium ionophore A23187 (Calbiochem, Bad Soden, Germany), and substance P (American Peptide Comp., USA):
The antagonism is possible on the one hand due to specific receptor antagonists, and on the other hand also due to inhibition of the subsequent signal pathway. Preparations which directly or indirectly increase the intracellular concentration of cyclic nucleotides in particular show spasmolytic properties here.
as §6
The guinea pig is sacrificed by means of terminal laughing gas anaesthesia. The trachea is exposed along its entire length and cut into 15 individual cartilage rings. 5 rings in each case are tied together to give a chain and fixed in the organ bath under a preload of 3 g. After an equilibration time of 45 minutes, a contraction is produced using the agonist. The antagonist (test preparation) is added cumulatively on the plateau of the maximum. Evaluation is carried out in % force change relative to the contraction maximum. The experimental procedure is carried out at 37° C.; the physiological nutrient solution used is a modified Krebs-Henseleit solution through which is bubbled 95% by volume of O2, 5% by volume of CO2.
Experimental animals: albino guinea pigs (Hattersheim Animal Breeding Institute, Kastengrund, Germany), weight: 200 to 300 g, sex male or female.
Vehicle: double-distilled water, ethanol or isopropanol; administration: into the organ bath number of administration: cumulative, in SP individual doses
All numerical values are indicated in the unit μg/ml and relate to the concentration range of the tested compound of the formula I according to the invention (see example numbers in Table 1) which is necessary in order to cause a dilatation which corresponds to the ED50 range.

[3] = system: muscle group (gastrocnemius, plantaris and soleus) of the immobilized right rear extremity; experiment: rat muscle function test: direct electrical stimulation of muscle group after 3 weeks' immobilization; assay type: in vivo, male Wistar rats; details: oral, 1x per day for 3 weeks, as a rule 25 mg/kg, ≤-12% classified as active; for Force (force under the contraction curve, right/left difference): isometric stimulation, control difference approx. 25%; for Work (performed work, right/left difference): isotonic stimulation, control approx. -25%
From the text: as §1, §2, §3
To determine the contractile force, the muscles were stimulated isometrically, i.e. a preload of 0.5N was applied and the muscle was stimulated by means of a series of electrical pulses, which led to a maximum contraction, every 0.7 sec for 80 msec for a period of 15 min. […] The area under this contraction curve was evaluated and the difference in percent between the right atrophic and left normal muscle compared (force under the contraction curve as difference in percent (Δ%)). The difference in the control group is approximately 25%.
An isotonic muscle stimulation was used to determine the performed work of the muscle over time. In this type of measurement, the shortening of the muscle during contraction is used as a basis. To this end, a preload which corresponds to the body weight was applied to the muscles. A series of stimulation pulses (80 msec) were triggered every 3 sec and the muscle was stimulated for 15 min. The data (contraction force and distance travelled) were converted to the work performed in the unit J using an automated system. The difference in the work performed between the immobilized atrophic and the normal muscle in the control animals was approximately -25%.
Values which are positive indicate that the functional parameters of the immobilized muscle were better than those of the contralateral normal muscle.

[4] = system: isolated guinea pig lung strips, Platelet activating factor (PAF); experiment: antagonist of PAF-induced contraction of isolated guinea pig lung strips; assay type: cell-based; details: Cavia porcellus, read-out: Anticontractile action (lung), PAF: concentration range corresponding to the IC50 value
From the text: as §4, §5, §6, §7, §8, §9

phosphodiesterase III = experiment: inhibition of phosphodiesterase III activity; assay type: biochemical; details: at 100 μM
Protocol: 5. Inhibition of phosphodiesterase III activity
The test is carried out using phosphodiesterase from Boehringer Mannheim (Mannheim, Germany), Order No. 108 243 according to the method of T. SAEKI, I. SAITO, Biochem. Pharm. 46, No. 5, […], pages 833-839.
All numerical values are indicated in % inhibition of the enzyme activity at 100 μM of the corresponding compound of the formula I.

Row | SMILES | Muscle weight (right/left difference) (soleus muscle) | IC50 [1] | EC50 [2] | Force (force under the contraction curve, right/left difference) [3] | Work (performed work, right/left difference) [3] | IC50 [4] | PDE III Inhibition (phosphodiesterase III)
1 | CCCn1cnc2c1c(=O)n(CCCCCP(=O)(OCC)OCC)c(=O)n2C [Example 17, Diethyl [5-(3-methyl-7-propylxanthin-1-yl)-pentyl]phosphonate] | 0 Δ % | 1 to 3 µg/mL (≈ 2.41 to 7.24 µM) | 30 to 60 µg/mL (≈ 72.4 to 145 µM) | +2 Δ % | -10 Δ % | 1 to 3 µg/mL (≈ 2.41 to 7.24 µM) | 77%
2 | CCOP(=O)(CCCCn1cnc2c1c(=O)n(CCC(C)C)c(=O)n2C)OCC [Example 15, Diethyl [4-(1-(3-methylbutyl)-3-methylxanthin-7-yl)butyl]phosphonate] | 0 Δ % | – | 30 to 60 µg/mL (≈ 70 to 140 µM) | +5 Δ % | +2 Δ % | – | –
3 | CCOP(=O)(CCCCn1c(=O)c2c(ncn2CC2CC2)n(C)c1=O)OCC [Example 50, Diethyl [4-(7-cyclopropylmethyl-3-methylxanthin-1-yl)butyl]phosphonate] | – | – | – | – | – | – | 51%
4 | CCOP(=O)(CCCCn1c(=O)c2c(ncn2CCC(C)C)n(C)c1=O)OCC [Example 41, Diethyl {4-[7-(3-methylbutyl)-3-methylxanthin-1-yl)butyl]phosphonate] | – | – | – | – | – | – | 56%
5 | CCCCn1cnc2c1c(=O)n(CCCCCP(=O)(OCC)OCC)c(=O)n2C [Example 48, Diethyl [5-(7-butyl-3-methylxanthin-1-yl)pentyl]phosphonate] | 0 Δ % | – | – | -3 Δ % | -7 Δ % | – | 52%
6 | CCOP(=O)(CCCCCn1c(=O)c2c(ncn2CC2CC2)n(C)c1=O)OCC [Example 49, Diethyl [5-(7-cyclopropylmethyl-3-methylxanthin-1-yl)pentyl]phosphonate] | -25 Δ % | 3 to 6 µg/mL (≈ 7.03 to 14.1 µM) | – | -5 Δ % | -5 Δ % | – | 57%
7 | CCOP(=O)(CCCn1c(=O)c2c(ncn2CC2CC2)n(C)c1=O)OCC [Example 46, Diethyl [3-(7-cyclopropylmethyl-3-methylxanthin-1-yl)propyl]phosphonate] | -17 Δ % | – | – | +1 Δ % | +9 Δ % | – | 67%
8 | CCOP(=O)(CCCn1c(=O)c2c(ncn2C(C)C)n(C)c1=O)OCC [Example 47] | 0 Δ % | – | 10 to 30 µg/mL (≈ 25.9 to 77.6 µM) | – | -6 Δ % | – | 64%
9 | CCCn1c(=O)c2c(ncn2CCCP(=O)(OCC)OCC)n(CCC)c1=O [Example 9, Diethyl [3-(1,3-dipropylxanthin-7-yl)propyl]phosphonate] | – | 3 to 6 µg/mL (≈ 7.24 to 14.5 µM) | 10 to 30 µg/mL (≈ 24.1 to 72.4 µM) | – | – | – | –
10 | CCOP(=O)(CCCCCn1c(=O)c2c(ncn2Cc2ccccc2)n(C)c1=O)OCC [Example 43, Diethyl [5-(7-benzyl-3-methylxanthin-1-yl)pentyl]phosphonate] | – | 1 to 6 µg/mL (≈ 2.16 to 13 µM) | – | – | – | 1 to 3 µg/mL (≈ 2.16 to 6.49 µM) | 52%
11 | CCCn1cnc2c1c(=O)n(CCCCCP(=O)(OCC)OCC)c(=O)n2CC [Example 57, Diethyl [5-(3-ethyl-7-propylxanthin-1-yl)pentyl]phosphonate] | -17 Δ % | – | – | -5 Δ % | -8 Δ % | – | 70%
12 | CCOP(=O)(CCCn1c(=O)c2c(ncn2C)n(C)c1=O)OCC [Example 33, Diethyl [3-(3,7-dimethylxanthin-1-yl)propyl]phosphonate] | -16 Δ % | – | 10 to 30 µg/mL (≈ 27.9 to 83.7 µM) | -7 Δ % | -10 Δ % | 3 to 6 µg/mL (≈ 8.37 to 16.7 µM) | –
13 | CCCn1cnc2c1c(=O)n(CCCP(=O)(OCC)OCC)c(=O)n2C [Example 55, Diethyl [3-(3-methyl-7-propylxanthin-1-yl)propyl]phosphonate] | – | – | – | – | – | 1 to 3 µg/mL (≈ 2.59 to 7.76 µM) | 59%
14 | CCOP(=O)(CCCCCn1c(=O)c2c(ncn2CC)n(C)c1=O)OCC [Example 20, Diethyl 5-(7-ethyl-3-methylxanthin-1-yl)pentylphosphonate] | – | – | 10 to 30 µg/mL (≈ 25 to 74.9 µM) | – | – | – | 65%
